Reference: publication PMC5589751, “Synthesis, high-throughput screening and pharmacological characterization of β–lactam derivatives as TRPM8 antagonists” (Scientific Reports, 2017)

How the values were obtained:
Format in all cases: cell-based
TRPV1 = TRPV1 (Rattus norvegicus, UniProt O35433); experiment: Ca2+ microfluorography (Fluo-4 NW), capsaicin-induced Ca2+ signal in SH-SY5Y-TRPV1 cells; conditions: 50 µM compound; agonist 10 µM capsaicin; SH-SY5Y-TRPV1 cells
Method: (§1) All compounds were tested at two different concentrations (50 and 5 µM) on TRPM8 and TRPV1 channels stably expressed in HEK and SH-SY5Y cell lines, respectively. The agonist induced intracellular Ca^2+ signals were measured using a fluorescent Ca^2+ indicator, in the absence and in the presence of test compounds. […] The obtained results were compared to those of 68 (AMTB, TRPM8 antagonist) and ruthenium red (TRPV1 antagonist). The IC50 values for the assay on TRPM8 were also calculated.
(§2) For fluorescence assays, cells expressing TRP channels (SH-SY5Y-TRPV1 and HEKCR1-TRPM8) were seeded in 96-well plates (Corning Incorporated, Corning, NY) at a cell density of 40,000 cells 2 days before treatment. The day of treatment the medium was replaced with 100 µL of the dye loading solution Fluo-4 NW supplemented with probenecid 2.5 mM. Then the compounds dissolved in DMSO were added at the desired concentrations and the plate(s) were incubated at 37 °C in a humidified atmosphere of 5% CO2 for 60 minutes.
(§3) The fluorescence was measured using instrument settings appropriate for excitation at 485 nm and emission at 535 nm (POLARstar Omega BMG LABtech). […] The corresponding antagonist
(§4) (10 µM Ruthenium Red forTRPV1 and 10 µM 68 for TRPM8) was added for the blockade. The changes in fluorescence intensity were recorded during 15 cycles more. […] The blocking percentage was calculated as follow (Eq. 1):1 %TRPBlockedResponse=(1−Fo−Fi/FCo−FCi)∗100 where Fo is the fluorescence after the addition of menthol in the presence of the compound, Fi is the fluorescence before the addition of menthol in the presence of the compound, FCo is the fluorescence after the addition of menthol in the absence of the compound, FCi is the fluorescence before the addition of menthol in the absence of the compound. To guarantee that our results were useful we only used assays with a Z-factor higher than 0.5.
(§5) The statistical Z-factor to determine the quality of the HTS experiment as was calculated using the equation 2:2 Z‐factor=1−3∗(SDmax+SDmin)/Meanmax−Meanmin where: Meanmax is the mean of the maximum fluorescence in the presence of agonist, SDmax is the standard deviation of the maximum fluorescence in the presence of agonists, Meanmin is the mean of the maximum fluorescence in the presence of agonist and antagonist and SDmin is the standard deviation of the maximum fluorescence in the presence of agonist and antagonist.

TRPM8 = molecular target: T1, TRPM8 (Rattus norvegicus, UniProt Q8R455); experiment: Ca2+ microfluorography (Fluo-4 NW), menthol-induced Ca2+ signal in HEK-CR1-TRPM8 cells; conditions: for % Block TRPM8 50 µM: 50 µM compound; for % Block TRPM8 50 µM / IC50: agonist 100 µM menthol, HEK-CR1-TRPM8 cells
T1 construct: expressed in transfected cells
Method: as §1, §2, §3, §4, §5

TRPA1 = TRPA1 (Homo sapiens, UniProt O75762); experiment: Whole-cell patch clamp in cells expressing TRPA1
Method: Electrophysiological recording was carried out 1-3 d after cells seeded. Membrane currents and voltages were recorded by patch clamp using the whole-cell configuration. […] In calcium-free bath solution, CaCl2 was replaced with 5mM EGTA. For potassium and sodium recordings, CsCl was substituted by KCl and the pH was adjusted to pH 7.2 with KOH. Patch pipettes were prepared from thin-walled borosilicate glass capillaries (World Precision Instruments, Sarasota, FL, USA), pulled with a horizontal puller (P-97, Sutter Instruments, Novato, CA, USA) to have a tip resistance of 2-4 MΩ when filled with internal solutions. Data were sampled at 10 kHz (EPC10 amplifier with PatchMaster 2.53 software, HEKA Electronics, Lambrecht, Germany) and low-pass filtered at 3 kHz for analysis (PatchMaster 2.53 and GraphPad Prism 5, Graphpad Software, USA). The series resistance was <10 MΩ and to minimize voltage errors was compensated to 60-80%. All measurements were performed at 24-25°C. The temperature was adjusted with a water-cooled Peltier device placed at the inlet of the chamber and controlled by a feedback device (Automatic Temperature Controller TC-324B, Warner Instruments). Cold-sensitivity was investigated with a temperature decrease to 16-18 °C. page 44: Figure 1S. […] A) […] compound 41 (blue line). Pre-application of compound (20 s) was followed by coapplication with 500 […] 41. […] C) […] Pre-application of […] Voltage was held at -60 mV for all the experiments. […] (1 picture or pasted object on this page, not shown here)

Chain of TRPA1 (O75762 whole entry, species assumed): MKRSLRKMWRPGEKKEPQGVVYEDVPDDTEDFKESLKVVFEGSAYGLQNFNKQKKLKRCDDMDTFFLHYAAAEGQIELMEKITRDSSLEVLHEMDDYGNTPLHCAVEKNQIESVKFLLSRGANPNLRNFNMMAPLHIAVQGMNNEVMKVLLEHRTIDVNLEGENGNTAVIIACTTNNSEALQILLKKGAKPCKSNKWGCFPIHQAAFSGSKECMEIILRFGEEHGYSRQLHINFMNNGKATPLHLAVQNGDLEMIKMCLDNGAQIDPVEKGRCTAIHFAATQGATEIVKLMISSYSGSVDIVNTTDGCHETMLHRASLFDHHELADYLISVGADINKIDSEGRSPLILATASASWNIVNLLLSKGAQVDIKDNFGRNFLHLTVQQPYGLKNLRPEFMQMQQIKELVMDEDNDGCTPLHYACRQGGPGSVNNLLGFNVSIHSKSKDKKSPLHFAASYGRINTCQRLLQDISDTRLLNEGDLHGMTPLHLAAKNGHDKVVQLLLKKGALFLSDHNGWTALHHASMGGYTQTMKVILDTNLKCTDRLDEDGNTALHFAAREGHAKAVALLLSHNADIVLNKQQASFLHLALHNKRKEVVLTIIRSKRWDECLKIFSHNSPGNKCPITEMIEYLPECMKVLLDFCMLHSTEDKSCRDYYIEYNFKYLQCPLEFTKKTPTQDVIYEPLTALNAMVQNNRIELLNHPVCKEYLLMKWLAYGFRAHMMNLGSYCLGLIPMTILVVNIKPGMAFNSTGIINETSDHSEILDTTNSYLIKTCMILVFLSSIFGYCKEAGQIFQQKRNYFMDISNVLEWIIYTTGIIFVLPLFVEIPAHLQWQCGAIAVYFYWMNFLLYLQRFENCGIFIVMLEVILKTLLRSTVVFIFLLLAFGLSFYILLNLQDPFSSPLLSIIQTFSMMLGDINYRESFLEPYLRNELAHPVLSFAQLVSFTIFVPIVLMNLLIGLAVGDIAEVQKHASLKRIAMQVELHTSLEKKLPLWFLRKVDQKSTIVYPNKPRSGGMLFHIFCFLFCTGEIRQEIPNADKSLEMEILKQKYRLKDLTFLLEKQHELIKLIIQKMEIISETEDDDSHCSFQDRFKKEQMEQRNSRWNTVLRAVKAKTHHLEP
T1 sequence (Q8R455 whole entry): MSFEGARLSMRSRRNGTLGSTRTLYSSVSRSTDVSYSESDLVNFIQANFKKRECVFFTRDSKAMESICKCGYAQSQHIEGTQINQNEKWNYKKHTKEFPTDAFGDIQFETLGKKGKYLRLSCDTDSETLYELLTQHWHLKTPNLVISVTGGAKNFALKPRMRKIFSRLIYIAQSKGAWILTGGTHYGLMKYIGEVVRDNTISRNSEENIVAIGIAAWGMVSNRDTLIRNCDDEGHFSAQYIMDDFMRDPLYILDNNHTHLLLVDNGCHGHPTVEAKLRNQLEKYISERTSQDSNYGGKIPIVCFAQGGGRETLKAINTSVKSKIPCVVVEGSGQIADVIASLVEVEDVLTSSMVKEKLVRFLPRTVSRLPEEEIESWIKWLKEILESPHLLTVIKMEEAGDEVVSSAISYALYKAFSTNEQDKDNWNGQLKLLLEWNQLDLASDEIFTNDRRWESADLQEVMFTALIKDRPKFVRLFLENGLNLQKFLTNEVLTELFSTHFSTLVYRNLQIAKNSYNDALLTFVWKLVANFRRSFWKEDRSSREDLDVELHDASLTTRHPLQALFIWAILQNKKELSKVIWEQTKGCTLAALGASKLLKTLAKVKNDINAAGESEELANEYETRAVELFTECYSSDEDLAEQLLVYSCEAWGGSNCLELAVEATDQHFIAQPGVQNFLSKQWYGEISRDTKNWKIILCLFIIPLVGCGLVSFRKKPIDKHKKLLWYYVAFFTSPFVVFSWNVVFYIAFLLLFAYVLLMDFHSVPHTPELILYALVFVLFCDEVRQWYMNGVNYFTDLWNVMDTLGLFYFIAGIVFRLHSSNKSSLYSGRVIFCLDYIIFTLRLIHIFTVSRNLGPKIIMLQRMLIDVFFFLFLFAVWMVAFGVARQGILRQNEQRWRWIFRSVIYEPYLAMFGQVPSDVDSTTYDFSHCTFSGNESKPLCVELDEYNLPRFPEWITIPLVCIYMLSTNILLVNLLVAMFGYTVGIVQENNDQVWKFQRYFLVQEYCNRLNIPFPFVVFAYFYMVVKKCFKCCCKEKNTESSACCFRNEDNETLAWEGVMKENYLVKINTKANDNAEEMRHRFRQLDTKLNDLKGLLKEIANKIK
Chain of TRPV1 (O35433 whole entry): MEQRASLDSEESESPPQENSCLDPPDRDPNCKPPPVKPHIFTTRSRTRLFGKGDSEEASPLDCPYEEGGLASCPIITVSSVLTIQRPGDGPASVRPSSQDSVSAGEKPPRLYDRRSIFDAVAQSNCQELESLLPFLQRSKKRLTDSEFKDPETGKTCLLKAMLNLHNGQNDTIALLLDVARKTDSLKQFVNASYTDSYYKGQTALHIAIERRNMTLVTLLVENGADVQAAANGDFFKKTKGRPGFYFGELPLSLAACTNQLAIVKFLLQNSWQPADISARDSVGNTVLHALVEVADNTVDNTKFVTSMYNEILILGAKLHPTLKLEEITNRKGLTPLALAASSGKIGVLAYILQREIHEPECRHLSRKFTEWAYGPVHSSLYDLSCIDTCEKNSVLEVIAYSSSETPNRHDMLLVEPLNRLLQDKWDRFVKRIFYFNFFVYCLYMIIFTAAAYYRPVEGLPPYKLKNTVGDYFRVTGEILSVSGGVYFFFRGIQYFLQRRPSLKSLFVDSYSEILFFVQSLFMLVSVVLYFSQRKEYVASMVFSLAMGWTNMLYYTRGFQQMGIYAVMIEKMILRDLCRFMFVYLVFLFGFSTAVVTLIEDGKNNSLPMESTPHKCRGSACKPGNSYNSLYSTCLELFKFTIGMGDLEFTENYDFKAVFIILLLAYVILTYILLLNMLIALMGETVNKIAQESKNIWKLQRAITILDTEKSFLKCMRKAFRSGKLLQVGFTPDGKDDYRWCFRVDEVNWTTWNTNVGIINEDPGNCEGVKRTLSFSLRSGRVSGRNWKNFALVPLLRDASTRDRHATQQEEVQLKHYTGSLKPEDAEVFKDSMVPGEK

Row | Structure (SMILES) | % Block TRPV1 50 µM (TRPV1) [%] | blocking effect against TRPM8 at 5 µM (TRPM8; 5 µM compound) [%] | % Block TRPM8 50 µM (TRPM8) [%] | IC50 (TRPM8) [µM] | IC50 (TRPA1) [µM] | agonist activity (activation) on TRPA1 (TRPA1; 1 µM compound, −60 mV)
1 | CC(C)(C)OC(=O)N[C@@H](CCN1C(=O)CC1(Cc1ccccc1)C(=O)OCc1ccccc1)C(=O)OCc1ccccc1 (stereo partly shown) [Compound 41, 4R,S-Benzyl-4-benzyloxycarbonyl-1-[(3′S-benzyloxycarbonyl-3-tert-butoxycarbonylamino-3′-benzyloxycarbonyl)prop-1′-yl]-2-oxoazetidine] | 38.3 ± 17.9 | 95 | 96.3 ± 1.6 | 0.42 | > 1 | did not produce activation
2 | CC1C(=O)N(CC[C@H](NC(=O)OC(C)(C)C)C(=O)OCc2ccccc2)C1(Cc1ccccc1)C(=O)OCc1ccccc1 (stereo partly drawn) [Compound 45, 4R,S-Benzyl-4-benzyloxycarbonyl-1-[(3′S-benzyloxycarbonyl-3′-tert-butoxycarbonylamino)prop-1′-yl]-(3R,S)-methyl-2-oxoazetidine] | 31.8 ± 6.5 |  | 100 | 0.8 ± 1.17 | > 1 | 
